Laboratory results taken from US10414759B2, “Phenylthiazoles and uses thereof” (Purdue Research Foundation, priority 2017, dated 2019).
Values after ≈ are worked out from the molar mass of the structure shown. Where two headings read alike, the source gives them in different places.

Assays:
MRSA (2658 RCMB) = assay: MIC against MRSA (2658 RCMB), broth dilution; assay type: cell-based, Staphylococcus aureus; conditions: Staphylococcus aureus; Table 7; initial screening, MRSA (2658 RCMB); read-out: minimum inhibitory concentration (MIC)
How it was run: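 Broth dilution in cation-adjusted Mueller-Hinton broth with an inoculum of about 5×10^5 CFU/mL (from a 0.5 McFarland suspension), using triplicate serial dilutions. MIC was the lowest concentration with no visible growth by visual inspection, reported as the mean of triplicates.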

MRSA (USA300) = assay: Time-kill assay; assay type: cell-based, Staphylococcus aureus
Experimental: Aliquots (100 μL) were taken from each sample after 2, 4, 6, 8, 10, 12, and 24 hours, serially diluted in phosphate-buffered saline, and transferred to Trypticase soy agar (TSA) (Becton, Dickinson and Company, Sparks, Md., USA) plates. Plates were incubated at 37° C. for at least 16 hours before counting viable CFU/mL to determine the time required to reduce the bacterial cell count by 3-log10.

MRSA NRS119 = assay: MIC/MBC S. aureus strains (Table 8); assay type: cell-based; conditions: Staphylococcus aureus
Experimental: (§1) A bacterial solution equivalent to 0.5 McFarland standard was prepared and diluted in cation-adjusted Mueller-Hinton broth (CAMHB) to achieve a bacterial concentration of about 5×10^5 CFU/mL and seeded in 96-well plates. Enterococcus faecium was diluted in brain heart infusion broth. Enterococcus faecalis, Streptococcus pneumonia and Listeria monocytogenes were diluted in tryptone soya broth (TSB).

MRSA NRS123 (USA400) = assay: MIC/MBC S. aureus strains (Table 8); assay type: cell-based; conditions: Staphylococcus aureus
Experimental: as §1

MRSA NRS384 (USA300) = assay: MIC/MBC S. aureus strains (Table 8); assay type: cell-based; conditions: Staphylococcus aureus
Experimental: as §1

MRSA NRS385 = assay: MIC/MBC S. aureus strains (Table 8); assay type: cell-based; conditions: Staphylococcus aureus
Experimental: as §1

MRSA NRS386 = assay: MIC/MBC S. aureus strains (Table 8); assay type: cell-based; conditions: Staphylococcus aureus
Experimental: as §1

S. aureus ATCC 6538 = assay: MIC/MBC S. aureus strains (Table 8); assay type: cell-based; conditions: Staphylococcus aureus, ATCC6538
Experimental: as §1

S. aureus NRS107 = assay: MIC/MBC S. aureus strains (Table 8); assay type: cell-based, Staphylococcus aureus; conditions: Staphylococcus aureus; Table 8; S. aureus NRS107
Experimental: as §1

VRS10 (VRSA) = assay: MIC/MBC S. aureus strains (Table 8); assay type: cell-based; conditions: Staphylococcus aureus
Experimental: (§2) The minimum inhibitory concentration (MIC) of tested compounds and control antibiotics were determined using the broth microdilution method in accordance with the recommendations contained in the Clinical and Laboratory Standards Institute guidelines, against methicillin-sensitive (ATCC 6538 and NRS107), methicillin-resistant (MRSA), and vancomycin-resistant (VRSA) Staphylococcus aureus, Staphylococcus epidermidis, Enterococcus faecalis, E. faecium, Listeria monocytogenes, and Streptococcus pneumoniae clinical isolates. A bacterial solution equivalent to 0.5 McFarland standard was prepared and diluted in cation-adjusted Mueller-Hinton broth (CAMHB) to achieve a bacterial concentration of about 5×10^5 CFU/mL and seeded in 96-well plates. Enterococcus faecium was diluted in brain heart infusion broth. Enterococcus faecalis, Streptococcus pneumonia and Listeria monocytogenes were diluted in tryptone soya broth (TSB). Compounds and control drugs were added in the first row of 96-well plates and serially diluted (to achieve a concentration gradient ranging from 128 to 1 μg/mL). Plates were then incubated aerobically at 37° C. for at least 18 hours. The minimum bactericidal concentration (MBC) of the active compounds was tested by plating 5 μL from wells with no growth onto Tryptic soy agar (TSA) plates.

VRS12 (VRSA) = assay: MIC/MBC S. aureus strains (Table 8); assay type: cell-based; conditions: Staphylococcus aureus
Experimental: as §2

[1] = test system: Enterococcus faecium ATCC 700221 (VRE); assay: MIC/MBC Gram-positive pathogens (Table 9); assay type: cell-based
Experimental: as §2

[2] = test system: Cephalosporin-resistant Streptococcus pneumoniae ATCC 51916; assay: MIC/MBC Gram-positive pathogens (Table 9); assay type: cell-based; conditions: ATCC51916
Experimental: as §1

[3] = test system: Enterococcus faecalis ATCC 51299 (VRE); assay: MIC/MBC Gram-positive pathogens (Table 9); assay type: cell-based
Experimental: as §1

[4] = test system: Listeria monocytogenes ATCC 19111; assay: MIC/MBC Gram-positive pathogens (Table 9); assay type: cell-based
Experimental: as §1

[5] = test system: Methicillin-resistant Staphylococcus epidermidis NRS101; assay: MIC/MBC Gram-positive pathogens (Table 9); assay type: cell-based
Experimental: as §1

[6] = test system: Methicillin-resistant Streptococcus pneumoniae ATCC 700677; assay: MIC/MBC Gram-positive pathogens (Table 9); assay type: cell-based; conditions: ATCC700677
Experimental: as §1

[7] = test system: human colorectal (Caco-2) cell; assay: In vitro cytotoxicity against Caco-2 cells (MTS); assay type: cell-based; conditions: at 32 μg/mL
Experimental: Tested compounds were assayed (at concentrations of 16, 32, and 64 μg/mL) against a human colorectal (Caco-2) cell to determine the potential toxic effect to mammalian cells in vitro. Briefly, cells were cultured in Dulbecco's Modified Eagle Medium (DMEM) supplemented with 20% fetal bovine serum (FBS), non-essential amino acids (1×), and penicillin-streptomycin at 37° C. with CO2 (5%). Control cells received DMSO alone at a concentration equal to that in drug-treated cell samples. The cells were incubated with the compounds (in triplicate) in a 96-well plate at 37° C. with CO2 (5%) for two hours. The assay reagent MTS 3-(4,5-dimethylthiazol-2-yl)-5-(3-carboxymethoxyphenyl)-2-(4-sulfophenyl)-2H-tetrazolium) (Promega, Madison, Wis., USA) was subsequently added and the plate was incubated for four hours. Absorbance readings (at OD490) were taken using a kinetic microplate reader (Molecular Devices, Sunnyvale, Calif., USA). The quantity of viable cells after treatment with each compound was expressed as a percentage of the viability of DMSO-treated control cells (average of triplicate wells±standard deviation). The toxicity data was analyzed via a two-way ANOVA, with post hoc Sidak's multiple comparisons test (P<0.05), utilizing GraphPad Prism 6.0 (GraphPad Software, La Jolla, Calif.).

NRS119 (MRSA) = assay: MIC/MBC clinical isolate panel (Table 3); assay type: cell-based, S. aureus; conditions: Staphylococcus aureus
Experimental: (§3) Bacteria were cultured in cation-adjusted Mueller Hinton broth in a 96-well plate. Compounds, using triplicate samples, were added to the plate and serially diluted. […] Plates were visually inspected and the MIC was categorized as the concentration at which no visible growth of bacteria was observed. The average of triplicate MIC determinations is reported.
as §1

NRS123 (MRSA USA400) = assay: MIC/MBC clinical isolate panel (Table 3); assay type: cell-based, S. aureus; conditions: Staphylococcus aureus
Experimental: as §3, §1

NRS382 (MRSA USA100) = assay: MIC/MBC clinical isolate panel (Table 3); assay type: cell-based, S. aureus; conditions: Staphylococcus aureus
Experimental: as §3, §1

NRS383 (MRSA USA200) = assay: MIC/MBC clinical isolate panel (Table 3); assay type: cell-based, S. aureus; conditions: Staphylococcus aureus
Experimental: as §3, §1

NRS384 (MRSA USA300) = assay: MIC/MBC clinical isolate panel (Table 3); assay type: cell-based, S. aureus; conditions: Staphylococcus aureus
Experimental: as §3, §1

NRS72 (MSSA) = assay: MIC/MBC clinical isolate panel (Table 3); assay type: cell-based, S. aureus; conditions: Staphylococcus aureus
Experimental: as §3, §1

VRSA10 = assay: MIC/MBC clinical isolate panel (Table 3); assay type: cell-based, S. aureus; conditions: Staphylococcus aureus
Experimental: as §3, with “MRSA clinical isolates, and vancomycin-resistant Staphylococcus aureus (VRSA) strain were obtained through the Network of Antimicrobial Resistance in Staphylococcus aureus (NARSA) program. In addition, vancomycin-resistant Enterococcus faecium (VRE) strain was obtained from the ATCC. Bacteria” for “Bacteria”
as §2

VRE ATCC 700221 = assay: MIC/MBC clinical isolate panel (Table 3); assay type: cell-based, Enterococcus faecium; conditions: Enterococcus
Experimental: as §3, with “MRSA clinical isolates, and vancomycin-resistant Staphylococcus aureus (VRSA) strain were obtained through the Network of Antimicrobial Resistance in Staphylococcus aureus (NARSA) program. In addition, vancomycin-resistant Enterococcus faecium (VRE) strain was obtained from the ATCC. Bacteria” for “Bacteria”
as §2

[8] = test system: methicillin-sensitive S. aureus (MSSA), MRSA and VRSA strains; assay: MIC/MBC summary over the S. aureus strain panel; assay type: cell-based
Experimental: as §2

[9] = test system: MRSA USA300 (NRS384) biofilm; assay: MRSA biofilm eradication, microtiter dish biofilm formation assay; assay type: cell-based, Staphylococcus aureus
Experimental: The bacterial suspension was removed and compounds were added at concentrations ranging from 128 to 1 μg/mL in TSB. Compounds were incubated with the biofilm at 37° C. for 24 hours. In order to quantify the biofilm mass, the bacterial suspension was removed and wells were washed with phosphate-buffered saline to remove planktonic bacteria. An aliquot of 0.1% crystal violet was added to each well to stain biofilm mass. After 30 minutes, wells were washed with sterile water and dried. Wells were de-stained using 100% ethanol prior to quantifying biofilm mass using a spectrophotometer (OD595). Data are presented as percent eradication of MRSA USA300 biofilm for each test agent relative to the negative (DMSO) control wells. Data were analyzed using two-way ANOVA with post-hoc Sidak's test for multiple comparisons (P<0.05).

[10] = test system: methicillin-sensitive S. aureus (MSSA), MRSA and VRSA strains; conditions: literature (Moran, N. Engl. J. Med. 2006); cited from earlier work
[11] = ATCC19111, Table 9, Listeria monocytogenes ATCC 19111

## Cc1nc(-c2ccc(C(C)(C)C)cc2)sc1-c1ccnc(NC(=N)c2cccnc2)n1 [Compound 63, N-(4-(2-(4-(tert-Butyl)phenyl)-4-methylthiazol-5-yl)pyrimidin-2-yl) nicotinimidamide]
MRSA (2658 RCMB)
  MIC: 0.78 µg/mL (≈ 1.82 µM)
MRSA (USA300); MRSA, 3.0×MIC
  bactericidal / bacteriostatic behaviour in time-kill assay, in words: bacteriostatic activity
MRSA (USA300); over 24 hours
  decrease in MRSA CFU: 2.3 log
MRSA NRS119
  MBC: 4 µg/mL (≈ 9.33 µM)
  MIC: 4 µg/mL (≈ 9.33 µM)
MRSA NRS123 (USA400)
  MBC: 4 µg/mL (≈ 9.33 µM)
  MIC: 4 µg/mL (≈ 9.33 µM)
MRSA NRS384 (USA300)
  MBC: 4 µg/mL (≈ 9.33 µM)
  MIC: 4 µg/mL (≈ 9.33 µM)
MRSA NRS385
  MBC: 4 µg/mL (≈ 9.33 µM)
  MIC: 4 µg/mL (≈ 9.33 µM)
MRSA NRS386
  MBC: 4 µg/mL (≈ 9.33 µM)
  MIC: 4 µg/mL (≈ 9.33 µM)
S. aureus ATCC 6538
  MBC: 4 µg/mL (≈ 9.33 µM)
  MIC: 4 µg/mL (≈ 9.33 µM)
S. aureus NRS107
  MBC: 4 µg/mL (≈ 9.33 µM)
  MIC: 4 µg/mL (≈ 9.33 µM)
VRS10 (VRSA); Table 8, VRS10 (VRSA), read-out: MBC
  MBC: 4 µg/mL (≈ 9.33 µM)
VRS10 (VRSA); Table 8, VRS10 (VRSA), read-out: MIC
  MIC: 4 µg/mL (≈ 9.33 µM)
VRS12 (VRSA); Table 8, VRS12 (VRSA), read-out: MBC
  MBC: 4 µg/mL (≈ 9.33 µM)
VRS12 (VRSA); Table 8, VRS12 (VRSA), read-out: MIC
  MIC: 4 µg/mL (≈ 9.33 µM)
[1]; Table 9, Enterococcus faecium ATCC 700221 (VRE), read-out: MIC
  MIC: 8 µg/mL (≈ 18.7 µM)
[2]
  MBC: 8 µg/mL (≈ 18.7 µM)
  MIC: 4 µg/mL (≈ 9.33 µM)
[3]; Table 9, Enterococcus faecalis ATCC 51299 (VRE)
  MIC: 8 µg/mL (≈ 18.7 µM)
[4]; [11]
  MBC: 64 µg/mL (≈ 149 µM)
  MIC: 4 µg/mL (≈ 9.33 µM)
[4]; text b122
  MBC values relative to MIC values against L. monocytogenes: more than three-fold higher
[5]
  MBC: > 64 µg/mL
  MIC: 64 µg/mL (≈ 149 µM)
[6]
  MBC: 8 µg/mL (≈ 18.7 µM)
  MIC: 4 µg/mL (≈ 9.33 µM)
[7]
  tolerability to human colorectal cells, in words: highly tolerable

## CN[C@H](CC(C)C)C(=O)N[C@H]1C(=O)N[C@@H](CC(N)=O)C(=O)N[C@H]2C(=O)N[C@H]3C(=O)N[C@H](C(=O)N[C@H](C(=O)O)c4cc(O)cc(O)c4-c4cc3ccc4O)[C@H](O)c3ccc(c(Cl)c3)Oc3cc2cc(c3O[C@@H]2O[C@H](CO)[C@@H](O)[C@H](O)[C@H]2O[C@H]2C[C@](C)(N)[C@H](O)[C@H](C)O2)Oc2ccc(cc2Cl)[C@H]1O [Vancomycin, vancomycin, reference compound]
NRS119 (MRSA)
  MIC: 1 µg/mL (≈ 0.69 µM)
NRS123 (MRSA USA400)
  MIC: 1 µg/mL (≈ 0.69 µM)
NRS382 (MRSA USA100)
  MIC: 1 µg/mL (≈ 0.69 µM)
NRS383 (MRSA USA200)
  MIC: 1 µg/mL (≈ 0.69 µM)
NRS384 (MRSA USA300)
  MIC: 1 µg/mL (≈ 0.69 µM)
NRS72 (MSSA)
  MIC: 2 µg/mL (≈ 1.38 µM)
VRSA10
  MBC: > 64 µg/mL
  MIC: > 64 µg/mL
VRE ATCC 700221
  MBC: > 64 µg/mL
  MIC: > 64 µg/mL
MRSA (USA300); 3.0×MIC
  time to three-log10 reduction in the initial inoculum of MRSA: 24 hours
MRSA (USA300); MRSA US300, 3.0×MIC
  time required to reduce the MRSA inoculum to zero colony forming units: 24 h
VRS10 (VRSA); VRSA
  MBC: > 64 µg/mL
  MIC: > 64 µg/mL
VRS12 (VRSA); VRSA
  MBC: > 64 µg/mL
  MIC: > 64 µg/mL
[1]; Enterococcus faecium
  MBC: > 64 µg/mL
  MIC: > 64 µg/mL
[3]; Enterococcus faecalis
  MBC: 64 µg/mL (≈ 44.2 µM)
[8]
  MIC range against MRSA: 1 to 2 µg/mL
[9]; at 1×MIC
  MRSA biofilm mass disrupted: 3%
[9]; at 32×MIC
  reduction of MRSA biofilm mass: 34%

## CCO/N=C(\C(=O)N[C@@H]1C(=O)N2C(C(=O)[O-])=C(Sc3nc(-c4cc[n+](C)cc4)cs3)CS[C@H]12)c1nsc(N)n1 [cefatroline]
[10]
  MIC range against MRSA and VRSA, reported: 0.5 to 4 µg/mL
